Results reported in patent US11897862B2 (Gilead Sciences, Inc., priority 2022, dated 2024).

Assays:
[1] = biological target: IKZF2 (Homo sapiens, UniProt Q96SW2+Q9UKS7); experiment: HEK293 HiBiT in vitro degradation of IKZF2; assay type: cell-based; design: expressed in transfected cells; settings: for DC50 / IKZF2 Dmax: HEK293 HiBiT; for DC50: 18-24 hr incubation, normalized to DMSO control, read-out: IKZF2 EC50; for Dmax: HEK293, HEK293 HiBiT; for Dmax / IKZF2 Dmax: maximum degradation at the highest concentration tested
Chain of IKZF2 (Q9UKS7 1-500 isoform Q9UKS7-2): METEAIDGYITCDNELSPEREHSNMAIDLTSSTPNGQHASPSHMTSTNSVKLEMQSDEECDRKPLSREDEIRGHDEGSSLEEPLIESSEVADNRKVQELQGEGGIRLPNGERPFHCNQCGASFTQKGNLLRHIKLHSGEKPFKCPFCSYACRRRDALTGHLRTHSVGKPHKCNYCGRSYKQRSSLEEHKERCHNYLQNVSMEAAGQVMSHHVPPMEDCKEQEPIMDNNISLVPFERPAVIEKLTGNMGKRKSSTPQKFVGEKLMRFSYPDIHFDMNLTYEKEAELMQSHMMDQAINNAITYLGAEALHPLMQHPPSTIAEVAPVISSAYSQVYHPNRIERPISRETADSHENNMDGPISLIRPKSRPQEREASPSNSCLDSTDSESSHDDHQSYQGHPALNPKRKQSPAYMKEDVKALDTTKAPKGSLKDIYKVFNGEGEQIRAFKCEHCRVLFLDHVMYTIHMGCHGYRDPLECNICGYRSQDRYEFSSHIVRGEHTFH
Chain of IKZF2 (Q96SW2 whole entry): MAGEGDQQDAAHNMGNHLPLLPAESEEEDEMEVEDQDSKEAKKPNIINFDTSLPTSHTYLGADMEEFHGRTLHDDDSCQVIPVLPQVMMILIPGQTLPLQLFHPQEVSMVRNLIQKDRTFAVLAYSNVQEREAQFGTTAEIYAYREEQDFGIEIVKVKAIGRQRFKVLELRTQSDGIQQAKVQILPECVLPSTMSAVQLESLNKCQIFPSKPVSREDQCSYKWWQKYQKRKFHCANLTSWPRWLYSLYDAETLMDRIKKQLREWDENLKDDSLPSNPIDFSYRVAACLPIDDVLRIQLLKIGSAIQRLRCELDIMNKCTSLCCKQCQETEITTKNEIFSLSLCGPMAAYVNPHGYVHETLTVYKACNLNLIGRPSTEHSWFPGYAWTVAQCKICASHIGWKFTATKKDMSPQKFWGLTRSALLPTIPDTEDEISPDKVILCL
Chain of IKZF2 (Q16531 whole entry partner): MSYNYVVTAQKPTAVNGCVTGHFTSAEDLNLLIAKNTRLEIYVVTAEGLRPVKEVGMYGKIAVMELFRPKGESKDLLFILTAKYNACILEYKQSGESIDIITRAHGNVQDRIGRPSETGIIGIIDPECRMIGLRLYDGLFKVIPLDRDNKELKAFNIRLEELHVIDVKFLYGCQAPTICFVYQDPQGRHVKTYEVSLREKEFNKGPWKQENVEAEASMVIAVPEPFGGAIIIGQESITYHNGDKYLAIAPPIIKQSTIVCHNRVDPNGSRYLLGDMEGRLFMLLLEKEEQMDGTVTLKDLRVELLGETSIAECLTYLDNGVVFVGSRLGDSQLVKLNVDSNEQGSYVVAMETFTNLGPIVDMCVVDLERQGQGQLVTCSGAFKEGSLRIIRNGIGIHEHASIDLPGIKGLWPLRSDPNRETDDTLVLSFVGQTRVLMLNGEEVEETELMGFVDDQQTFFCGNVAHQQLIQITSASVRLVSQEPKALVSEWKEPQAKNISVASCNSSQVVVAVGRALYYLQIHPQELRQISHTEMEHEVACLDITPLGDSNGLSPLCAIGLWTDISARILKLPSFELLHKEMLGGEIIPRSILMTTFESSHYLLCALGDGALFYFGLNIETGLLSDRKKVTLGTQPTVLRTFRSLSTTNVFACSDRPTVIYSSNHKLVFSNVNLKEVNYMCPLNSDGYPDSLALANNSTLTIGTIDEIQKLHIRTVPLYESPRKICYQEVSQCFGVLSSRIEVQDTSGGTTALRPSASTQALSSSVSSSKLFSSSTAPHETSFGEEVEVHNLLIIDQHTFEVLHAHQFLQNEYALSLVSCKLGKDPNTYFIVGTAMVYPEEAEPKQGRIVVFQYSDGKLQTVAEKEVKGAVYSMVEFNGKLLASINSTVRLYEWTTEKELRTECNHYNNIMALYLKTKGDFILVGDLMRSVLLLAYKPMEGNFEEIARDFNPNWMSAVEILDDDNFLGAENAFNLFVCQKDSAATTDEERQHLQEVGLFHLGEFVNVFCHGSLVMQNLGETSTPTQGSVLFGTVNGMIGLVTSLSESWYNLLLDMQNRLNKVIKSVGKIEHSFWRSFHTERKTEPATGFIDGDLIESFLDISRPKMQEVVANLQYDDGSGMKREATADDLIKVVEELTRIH
Summary of the method: (§1)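 Stable HEK293 reporter pools, each with one integrated tet-inducible copy of a HiBiT-tagged target, were induced with doxycycline overnight at 37 °C. After 18-24 h with compound dilution series, Nano-Glo lysis and luminescence yielded EC50 and Dmax values.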

[2] = biological target: T1, IKZF1 (Homo sapiens, UniProt Q13422+Q96SW2); experiment: HEK293 HiBiT in vitro degradation of IKZF1; assay type: cell-based; settings: for DC50 / IKZF1 Dmax: HEK293 HiBiT; for DC50: 18-24 hr incubation, normalized to DMSO control, read-out: IKZF1 EC50; for Dmax: HEK293, HEK293 HiBiT; for Dmax / IKZF1 Dmax: maximum degradation at the highest concentration tested
T1 construct: expressed in transfected cells
T1 sequence (Q13422 whole entry): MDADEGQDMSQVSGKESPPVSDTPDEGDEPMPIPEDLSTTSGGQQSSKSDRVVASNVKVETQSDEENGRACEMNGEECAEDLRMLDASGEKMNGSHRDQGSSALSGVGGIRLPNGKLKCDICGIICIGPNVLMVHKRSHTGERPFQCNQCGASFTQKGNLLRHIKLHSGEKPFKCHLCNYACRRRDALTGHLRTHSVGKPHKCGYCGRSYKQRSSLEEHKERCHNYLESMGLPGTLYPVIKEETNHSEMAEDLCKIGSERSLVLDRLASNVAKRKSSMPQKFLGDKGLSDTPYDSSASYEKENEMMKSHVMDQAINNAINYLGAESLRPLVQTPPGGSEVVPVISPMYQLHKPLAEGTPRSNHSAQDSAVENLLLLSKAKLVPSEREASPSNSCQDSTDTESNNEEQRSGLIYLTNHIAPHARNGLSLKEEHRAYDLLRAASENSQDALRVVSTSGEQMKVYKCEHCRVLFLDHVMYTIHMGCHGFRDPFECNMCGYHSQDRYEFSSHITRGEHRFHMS
T1 sequence (Q96SW2 whole entry): as the sequence (Q96SW2 whole entry) above
T1 sequence (Q16531 whole entry partner): as the sequence (Q16531 whole entry partner) above
Summary of the method: as §1

Structure (SMILES) | DC50 [1] [nM] | DC50 [2] [nM] | Dmax [1] [%] | Dmax [2] [%] | IKZF2 Dmax [1] [%] | IKZF1 Dmax [2] [%]
CC(N[C@H]1CCCC[C@@H]1Cc1ccc2c(c1)CN(C1CCC(=O)NC1=O)C2=O)C1(F)CC1 (single isomer, unassigned) [Example 224] | 2 | > 1000 | 96 | – | – | –
O=C1CCC(N2Cc3c(ccc(C[C@H]4CCCC[C@@H]4NC4CCCCC4)c3F)C2=O)C(=O)N1 (stereo partly drawn) [Example 88, 3-(5-(((1R,2S)-2-(cyclohexylamino)cyclohexyl)methyl)-4-fluoro-1-oxoisoindolin-2-yl)piperidine-2,6-dione] | 1 | 101 | 99 | 38 | – | –
O=C1CCC(N2Cc3cc(C[C@H]4CCCC[C@@H]4NC4CCOc5ccccc54)ccc3C2=O)C(=O)N1 (stereo partly drawn) [Example 175] | 24 | 189 | 96 | 46 | – | –
O=C1CCC(N2Cc3cc(C[C@H]4CCCC[C@@H]4NCc4ccc5ccccc5c4)ccc3C2=O)C(=O)N1 (stereo partly drawn) [Example 9, 3-(5-(((1R,2S)-2-((naphthalen-2-ylmethyl)amino)cyclohexyl)methyl)-1-oxoisoindolin-2-yl)piperidine-2,6-dione] | 19 | > 1000 | 92 | – | – | –
CCC(N[C@H]1CCCC[C@@H]1Cc1ccc2c(c1)CN(C1CCC(=O)NC1=O)C2=O)C1CC1 (single isomer, unassigned) [Example 232] | 21 | > 1000 | 93 | – | – | –
[2H]C1(N[C@H]2CCCC[C@@H]2Cc2ccc3c(c2)CN(C2CCC(=O)NC2=O)C3=O)CCCCC1 (stereo partly drawn) [Example 215] | 2 | 174 | 97 | 29 | – | –
CC(C)(C#N)CCN[C@H]1CCCC[C@@H]1Cc1ccc2c(c1)CN(C1CCC(=O)NC1=O)C2=O (stereo partly drawn) [Example 133] | 32 | 132 | 96 | 30 | – | –
CC(CC1CC1)N[C@H]1CCCC[C@@H]1Cc1ccc2c(c1)CN(C1CCC(=O)NC1=O)C2=O (single isomer, unassigned) [Example 231] | 3 | > 1000 | – | – | 96 | –
CCC(C)N[C@H]1CCCC[C@@H]1Cc1ccc2c(c1F)CN(C1CCC(=O)NC1=O)C2=O (single isomer, unassigned) [Example 295] | 1 | 283 | – | – | 97 | 43
Cn1cc(CN[C@H]2CCCC[C@@H]2Cc2ccc3c(c2)CN(C2CCC(=O)NC2=O)C3=O)cn1 (stereo partly drawn) [Example 42, 3-(5-(((1R,2S)-2-(((1-methyl-1H-pyrazol-4-yl)methyl)amino)cyclohexyl)methyl)-1-oxoisoindolin-2-yl)piperidine-2,6-dione] | 126 | > 1000 | 78 | – | – | –
CC(C)N[C@H]1CCCO[C@@H]1Cc1ccc2c(c1)CN(C1CCC(=O)NC1=O)C2=O (stereo partly drawn) [Example 180] | 39 | > 1000 | 85 | – | – | –
CC1(C)COCCC1N[C@H]1CCCC[C@@H]1Cc1ccc2c(c1)CN(C1CCC(=O)NC1=O)C2=O (stereo partly drawn) [Example 192] | 6 | > 10000 | 94 | – | – | –
CC(N[C@H]1CCCC[C@@H]1Cc1ccc2c(c1)CN(C1CCC(=O)NC1=O)C2=O)C1(C)CC1 (stereo partly drawn) [Example 235] | 9 | > 1000 | – | – | 97 | –
O=C1CCC(N2Cc3cc(C[C@H]4CCCC[C@@H]4NC4CCCOC4)ccc3C2=O)C(=O)N1 (single isomer, unassigned) [Example 261] | 6 | > 1000 | – | – | 96 | –
O=C1CCC(N2Cc3cc(C[C@H]4C[C@@H](F)CC[C@@H]4NC4CCCCC4)ccc3C2=O)C(=O)N1 (stereo partly drawn) [Example 342] | 18 | > 1000 | 86 | – | – | –
O=C1CCC(N2Cc3cc(C[C@H]4CCC[C@H](O)[C@@H]4NC4CCC(F)(F)CC4)ccc3C2=O)C(=O)N1 (single isomer, unassigned) [Example 151] | 22 | > 1000 | 87 | – | – | –

More lines, now with the values ahead:

DC50 [1] [nM] | DC50 [2] [nM] | Dmax [1] [%] | Dmax [2] [%] | IKZF2 Dmax [1] [%] | IKZF1 Dmax [2] [%] | Structure (SMILES)
36 | 85 | – | – | – | – | O=C1CCC(N2Cc3cc(C[C@H]4CCCC[C@@H]4NCc4ccccc4)ccc3C2=O)C(=O)N1 (single isomer, unassigned) [Example 97]
3 | 266 | 96 | 40 | – | – | N#CCC1CCC(N[C@H]2CCCC[C@@H]2Cc2ccc3c(c2)CN(C2CCC(=O)NC2=O)C3=O)CC1 (single isomer, unassigned) [Example 269]
2 | 51 | 98 | 34 | – | – | O=C1CCC(N2Cc3cc(C[C@H]4CCCC[C@@H]4NC4CCC(C(F)F)CC4)ccc3C2=O)C(=O)N1 (stereo partly drawn) [Example 216]
6 | > 1000 | 93 | – | – | – | O=C1CCC(N2Cc3cc(C[C@H]4CCCC[C@@H]4NC4CC4)ccc3C2=O)C(=O)N1 (stereo partly drawn) [Example 47, 3-(5-(((1R,2S)-2-(cyclopropylamino)cyclohexyl)methyl)-1-oxoisoindolin-2-yl)piperidine-2,6-dione]
2 | 912 | 97 | 59 | – | – | CCC(C)N[C@H]1CCCC[C@@H]1Cc1ccc2c(c1F)CN(C1CCC(=O)NC1=O)C2=O (single isomer, unassigned) [Example 294]
26 | > 1000 | 88 | – | – | – | CN(C1CCC(F)(F)CC1)[C@H]1CCCC[C@@H]1Cc1ccc2c(c1)CN(C1CCC(=O)NC1=O)C2=O (stereo partly drawn) [Example 123, 3-(5-(((1R,2S)-2-((4,4-difluorocyclohexyl)(methyl)amino)cyclohexyl)methyl)-1-oxoisoindolin-2-yl)piperidine-2,6-dione]
10 | > 1000 | 95 | – | – | – | CC(C)C(C)N[C@H]1CCCO[C@@H]1Cc1ccc2c(c1F)CN(C1CCC(=O)NC1=O)C2=O (stereo partly drawn) [Example 306]
10 | 79 | – | – | 95 | 24 | O=C1CCC(N2Cc3cc(C[C@H]4CCCC[C@@H]4NC4CCCC[C@@H]4F)ccc3C2=O)C(=O)N1 (stereo partly drawn) [Example 106]
47 | 265 | 86 | 34 | – | – | Cn1nccc1CN[C@H]1CCCC[C@@H]1Cc1ccc2c(c1)CN(C1CCC(=O)NC1=O)C2=O (stereo partly drawn) [Example 39, 3-(5-(((1R,2S)-2-(((1-methyl-1H-pyrazol-5-yl)methyl)amino)cyclohexyl)methyl)-1-oxoisoindolin-2-yl)piperidine-2,6-dione]
61 | > 1000 | 97 | – | – | – | COC(C)(C)CCN[C@H]1CCCC[C@@H]1Cc1ccc2c(c1)CN(C1CCC(=O)NC1=O)C2=O (stereo partly drawn) [Example 134]
35 | > 1000 | 83 | – | – | – | O=C1CCC(N2Cc3cc(C[C@H]4CCCC[C@@H]4NC4COC4)ccc3C2=O)C(=O)N1 (stereo partly drawn) [Example 72]
26 | 198 | 98 | 37 | – | – | O=C1CCC(N2Cc3cc(C[C@H]4CCCC[C@@H]4NC4CCC5(CCO5)CC4)ccc3C2=O)C(=O)N1 (stereo partly drawn) [Example 171]
19 | 203 | – | – | 98 | 28 | O=C1CCC(N2Cc3cc(C[C@H]4CCCC[C@@H]4NC4CCC5(CCO5)CC4)ccc3C2=O)C(=O)N1 (stereo partly drawn) [Example 172]
91 | > 1000 | 45 | – | – | – | O=C1CCC(N2Cc3cc(C[C@H]4CCCC[C@@H]4NCc4c(F)cncc4F)ccc3C2=O)C(=O)N1 (stereo partly drawn) [Example 43, 3-(5-(((1R,2S)-2-(((3,5-difluoropyridin-4-yl)methyl)amino)cyclohexyl)methyl)-1-oxoisoindolin-2-yl)piperidine-2,6-dione]
7 | 888 | 95 | 51 | – | – | CCOC1CC(N[C@H]2CCCC[C@@H]2Cc2ccc3c(c2)CN(C2CCC(=O)NC2=O)C3=O)C1 (stereo partly drawn) [Example 75]
3 | 81 | 96 | 36 | – | – | O=C1CCC(N2Cc3cc(C[C@H]4CCCC[C@@H]4NC4CCCC[C@H]4F)ccc3C2=O)C(=O)N1 (stereo partly drawn) [Example 107]
11 | > 1000 | 90 | – | – | – | CC(COc1ccccc1)N[C@H]1CCCC[C@@H]1Cc1ccc2c(c1)CN(C1CCC(=O)NC1=O)C2=O (stereo partly drawn) [Example 77]
13 | 388 | 96 | 46 | – | – | O=C1CCC(N2Cc3cc(C[C@H]4CCCC[C@@H]4NCC4CCC(F)(F)CC4)ccc3C2=O)C(=O)N1 (stereo partly drawn) [Example 10, 3-(5-(((1R,2S)-2-(((4,4-difluorocyclohexyl)methyl)amino)cyclohexyl)methyl)-1-oxoisoindolin-2-yl)piperidine-2,6-dione]
34 | > 1000 | 84 | – | – | – | COc1ccccc1CCN[C@H]1CCCC[C@@H]1Cc1ccc2c(c1)CN(C1CCC(=O)NC1=O)C2=O (stereo partly drawn) [Example 76]
30 | 122 | 90 | 32 | – | – | O=C1CCC(N2Cc3cc(C[C@H]4CCCC[C@@H]4NCc4cncs4)ccc3C2=O)C(=O)N1 (stereo partly drawn) [Example 6, 3-(1-oxo-5-(((1R,2S)-2-((thiazol-5-ylmethyl)amino)cyclohexyl)methyl)isoindolin-2-yl)piperidine-2,6-dione]
30 | > 1000 | 74 | – | – | – | O=C1CCC(N2Cc3cc(C[C@H]4CCCC[C@@H]4N4CC(OCC5CC5)C4)ccc3C2=O)C(=O)N1 (stereo partly drawn) [Example 67, 3-(5-(((1R,2S)-2-(3-(cyclopropylmethoxy)azetidin-1-yl)cyclohexyl)methyl)-1-oxo-isoindolin-2-yl)piperidine-2,6-dione]
